tested on: K562; assay: Antiproliferative activity against human K562 cells incubated for 48 hrs by MTT assay; format: functional, cell-based; conditions: K562, 48 h; call rule not given here

IC50 | Compound
44 µM | Cc1ccc(S(=O)(=O)NC(=O)[C@H](Cc2ccccc2)N2C(=O)/C(=C/c3ccc(-c4ccccc4)cc3)SC2=S)cc1
13 µM | COc1ccc2c(c1)c(CC(=O)N[C@@H](Cc1ccccc1)C(=O)NS(=O)(=O)c1ccc(Cl)c([N+](=O)[O-])c1)c(C)n2-c1ccc(-c2ccccc2)cc1
18.8 µM | COc1ccc2c(c1)c(CC(=O)N[C@@H](Cc1ccccc1)C(=O)NS(=O)(=O)c1ccccc1)c(C)n2-c1ccc(-c2ccccc2)cc1
27.5 µM | COc1ccc(S(=O)(=O)NC(=O)[C@H](Cc2ccccc2)NC(=O)Cc2c(C)n(-c3ccc(-c4ccccc4)cc3)c3ccc(OC)cc23)cc1

molecular target: Apoptosis regulator Bcl-2 (Homo sapiens, UniProt P10415); assay: Inhibition of 5-FAM-Bid-BH3 peptide binding to Bcl2 (unknown origin) pre-incubated for 30 mins followed by further incubation with 5-FAM-Bid-BH3 peptide for 20 mins by fluorescence polarization assay; conditions: not given
Sequence (P10415 whole entry): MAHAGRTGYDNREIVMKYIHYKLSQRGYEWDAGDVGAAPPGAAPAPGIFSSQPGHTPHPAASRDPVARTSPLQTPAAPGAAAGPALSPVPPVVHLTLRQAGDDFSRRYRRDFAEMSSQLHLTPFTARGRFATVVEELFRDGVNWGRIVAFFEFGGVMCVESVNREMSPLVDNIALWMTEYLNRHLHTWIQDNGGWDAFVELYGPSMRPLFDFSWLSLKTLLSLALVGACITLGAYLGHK

Ki | Compound
0.94 µM | Cc1ccc(S(=O)(=O)NC(=O)[C@H](Cc2ccccc2)N2C(=O)/C(=C/c3ccc(-c4ccccc4)cc3)SC2=S)cc1
0.91 µM | COc1ccc2c(c1)c(CC(=O)N[C@@H](Cc1ccccc1)C(=O)NS(=O)(=O)c1ccc([N+](=O)[O-])cc1)c(C)n2-c1ccc(-c2ccccc2)cc1
0.58 µM | COc1ccc2c(c1)c(CC(=O)N[C@@H](Cc1ccccc1)C(=O)NS(=O)(=O)c1ccc(Cl)c([N+](=O)[O-])c1)c(C)n2-c1ccc(-c2ccccc2)cc1
> 10 µM | COc1ccc2c(c1)c(CC(=O)NS(=O)(=O)c1ccc(NCCSc3ccccc3)c([N+](=O)[O-])c1)c(C)n2-c1ccc(-c2ccccc2)cc1
> 10 µM | COc1ccc2c(c1)c(CC(=O)NS(=O)(=O)c1ccc(N3CCN(C)CC3)c([N+](=O)[O-])c1)c(C)n2-c1ccc(C)cc1
> 10 µM | COc1ccc2c(c1)c(CC(=O)NS(=O)(=O)c1ccc(NC3CCCCC3)c([N+](=O)[O-])c1)c(C)n2-c1ccc(-c2ccccc2)cc1
0.83 µM | COc1ccc2c(c1)c(CC(=O)N[C@@H](Cc1c[nH]c3ccccc13)C(=O)NS(=O)(=O)c1ccc(Cl)c([N+](=O)[O-])c1)c(C)n2-c1ccc(-c2ccccc2)cc1
> 10 µM | COc1ccc2c(c1)c(CC(=O)NS(=O)(=O)c1ccc(NCc3ccccc3)c([N+](=O)[O-])c1)c(C)n2-c1ccc(C)cc1
> 10 µM | COc1ccc2c(c1)c(CC(=O)N[C@@H](Cc1ccccc1)C(=O)NS(=O)(=O)c1ccccc1)c(C)n2-c1ccc(C)cc1
> 10 µM | COc1ccc(S(=O)(=O)NC(=O)Cc2c(C)n(-c3ccc(-c4ccccc4)cc3)c3ccc(OC)cc23)cc1
> 10 µM | COc1ccc2c(c1)c(CC(=O)N[C@@H](Cc1c[nH]c3ccccc13)C(=O)NS(=O)(=O)c1ccccc1)c(C)n2-c1ccc(-c2ccccc2)cc1
> 10 µM | COc1ccc2c(c1)c(CC(=O)NS(=O)(=O)c1ccc(NCCCc3ccccc3)c([N+](=O)[O-])c1)c(C)n2-c1ccc(-c2ccccc2)cc1
> 10 µM | COc1ccc2c(c1)c(CC(=O)NS(=O)(=O)c1ccc(Cl)c([N+](=O)[O-])c1)c(C)n2-c1ccc(C)cc1
0.35 µM | COc1ccc2c(c1)c(CC(=O)N[C@@H](Cc1ccccc1)C(=O)NS(=O)(=O)c1ccccc1)c(C)n2-c1ccc(-c2ccccc2)cc1
> 10 µM | COc1ccc2c(c1)c(CC(=O)N[C@@H](Cc1ccccc1)C(=O)NS(=O)(=O)c1ccc(-c3ccccc3)cc1)c(C)n2-c1ccc(-c2ccccc2)cc1
> 10 µM | COc1ccc2c(c1)c(CC(=O)NS(=O)(=O)c1ccc(N3CCOCC3)c([N+](=O)[O-])c1)c(C)n2-c1ccc(-c2ccccc2)cc1
0.72 µM | COc1ccc2c(c1)c(CC(=O)NS(=O)(=O)c1ccc(Cl)c([N+](=O)[O-])c1)c(C)n2-c1ccc(-c2ccccc2)cc1
0.91 µM | COc1ccc2c(c1)c(CC(=O)N[C@@H](Cc1ccccc1)C(=O)NS(=O)(=O)c1ccc(Cl)cc1)c(C)n2-c1ccc(-c2ccccc2)cc1
> 10 µM | COc1ccc(S(=O)(=O)NC(=O)Cc2c(C)n(-c3ccc(C)cc3)c3ccc(OC)cc23)cc1
0.72 µM | COc1ccc2c(c1)c(CC(=O)N[C@@H](Cc1ccc(OCc3ccc([N+](=O)[O-])cc3)cc1)C(=O)NS(=O)(=O)c1ccc(Cl)c([N+](=O)[O-])c1)c(C)n2-c1ccc(C)cc1
> 10 µM | COc1ccc2c(c1)c(CC(=O)N[C@@H](Cc1ccc(OCc3ccc([N+](=O)[O-])cc3)cc1)C(=O)NS(=O)(=O)c1ccc(Cl)c([N+](=O)[O-])c1)c(C)n2-c1ccc(-c2ccccc2)cc1
> 10 µM | COc1ccc2c(c1)c(CC(=O)NS(=O)(=O)c1ccc(N3CCOCC3)c([N+](=O)[O-])c1)c(C)n2-c1ccc(C)cc1
> 10 µM | COc1ccc2c(c1)c(CC(=O)NS(=O)(=O)c1ccccc1)c(C)n2-c1ccc(-c2ccccc2)cc1
0.47 µM | COc1ccc(S(=O)(=O)NC(=O)[C@H](Cc2ccccc2)NC(=O)Cc2c(C)n(-c3ccc(-c4ccccc4)cc3)c3ccc(OC)cc23)cc1
> 10 µM | COc1ccc(S(=O)(=O)NC(=O)[C@H](Cc2c[nH]c3ccccc23)NC(=O)Cc2c(C)n(-c3ccc(-c4ccccc4)cc3)c3ccc(OC)cc23)cc1
> 10 µM | COc1ccc2c(c1)c(CC(=O)NS(=O)(=O)c1ccc(NCc3ccccc3)c([N+](=O)[O-])c1)c(C)n2-c1ccc(-c2ccccc2)cc1
> 10 µM | COc1ccc2c(c1)c(CC(=O)NS(=O)(=O)c1ccc([N+](=O)[O-])cc1)c(C)n2-c1ccc(C)cc1

molecular target: Induced myeloid leukemia cell differentiation protein Mcl-1 (Homo sapiens, UniProt Q07820); assay: Inhibition of 5-FAM-Bid-BH3 peptide binding to Mcl1 (unknown origin) pre-incubated for 30 mins followed by further incubation with 5-FAM-Bid-BH3 peptide for 20 mins by fluorescence polarization assay; conditions: not given
Sequence (Q07820 whole entry): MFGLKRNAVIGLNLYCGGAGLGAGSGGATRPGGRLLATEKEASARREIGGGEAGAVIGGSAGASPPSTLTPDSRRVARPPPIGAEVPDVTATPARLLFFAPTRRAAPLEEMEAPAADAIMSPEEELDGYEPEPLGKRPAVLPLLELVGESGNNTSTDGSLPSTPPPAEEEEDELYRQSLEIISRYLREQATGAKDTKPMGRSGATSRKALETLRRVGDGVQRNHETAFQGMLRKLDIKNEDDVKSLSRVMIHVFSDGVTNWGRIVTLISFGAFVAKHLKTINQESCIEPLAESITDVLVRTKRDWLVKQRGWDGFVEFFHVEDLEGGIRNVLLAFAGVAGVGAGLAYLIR

Ki | Compound
0.47 µM | Cc1ccc(S(=O)(=O)NC(=O)[C@H](Cc2ccccc2)N2C(=O)/C(=C/c3ccc(-c4ccccc4)cc3)SC2=S)cc1
0.48 µM | COc1ccc2c(c1)c(CC(=O)N[C@@H](Cc1ccccc1)C(=O)NS(=O)(=O)c1ccc(Cl)c([N+](=O)[O-])c1)c(C)n2-c1ccc(-c2ccccc2)cc1
0.96 µM | COc1ccc2c(c1)c(CC(=O)N[C@@H](Cc1ccccc1)C(=O)NS(=O)(=O)c1ccccc1)c(C)n2-c1ccc(-c2ccccc2)cc1
0.88 µM | COc1ccc(S(=O)(=O)NC(=O)[C@H](Cc2ccccc2)NC(=O)Cc2c(C)n(-c3ccc(-c4ccccc4)cc3)c3ccc(OC)cc23)cc1

molecular target: Bcl-2-like protein 1 (Homo sapiens, UniProt Q07817); assay: Inhibition of 5-FAM-Bid-BH3 peptide binding to Bcl-XL (unknown origin) pre-incubated for 30 mins followed by further incubation with 5-FAM-Bid-BH3 peptide for 20 mins by fluorescence polarization assay; conditions: not given
Sequence (Q07817 whole entry): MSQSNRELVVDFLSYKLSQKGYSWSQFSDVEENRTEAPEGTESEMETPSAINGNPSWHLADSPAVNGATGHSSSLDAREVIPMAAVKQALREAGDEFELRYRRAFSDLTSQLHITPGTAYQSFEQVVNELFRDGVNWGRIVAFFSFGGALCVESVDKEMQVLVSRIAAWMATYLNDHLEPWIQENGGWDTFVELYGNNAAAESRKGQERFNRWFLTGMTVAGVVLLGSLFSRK

Ki | Compound
Not Active | COc1ccc2c(c1)c(CC(=O)N[C@@H](Cc1ccccc1)C(=O)NS(=O)(=O)c1ccc(Cl)c([N+](=O)[O-])c1)c(C)n2-c1ccc(-c2ccccc2)cc1
Not Active | COc1ccc2c(c1)c(CC(=O)N[C@@H](Cc1ccccc1)C(=O)NS(=O)(=O)c1ccccc1)c(C)n2-c1ccc(-c2ccccc2)cc1
Not Active | COc1ccc(S(=O)(=O)NC(=O)[C@H](Cc2ccccc2)NC(=O)Cc2c(C)n(-c3ccc(-c4ccccc4)cc3)c3ccc(OC)cc23)cc1

same assay, conditions: read-out: Ki

Ki | Compound
1.2 µM | Cc1ccc(S(=O)(=O)NC(=O)[C@H](Cc2ccccc2)N2C(=O)/C(=C/c3ccc(-c4ccccc4)cc3)SC2=S)cc1

tested on: MDA-MB-231; assay: Antiproliferative activity against human MDA-MB-231 cells incubated for 48 hrs by MTT assay; format: functional, cell-based; conditions: MDA-MB-231, 48 h

IC50 | Compound
45.9 µM | Cc1ccc(S(=O)(=O)NC(=O)[C@H](Cc2ccccc2)N2C(=O)/C(=C/c3ccc(-c4ccccc4)cc3)SC2=S)cc1
42.1 µM | COc1ccc2c(c1)c(CC(=O)N[C@@H](Cc1ccccc1)C(=O)NS(=O)(=O)c1ccc(Cl)c([N+](=O)[O-])c1)c(C)n2-c1ccc(-c2ccccc2)cc1
33.5 µM | COc1ccc2c(c1)c(CC(=O)N[C@@H](Cc1ccccc1)C(=O)NS(=O)(=O)c1ccccc1)c(C)n2-c1ccc(-c2ccccc2)cc1
38.6 µM | COc1ccc(S(=O)(=O)NC(=O)[C@H](Cc2ccccc2)NC(=O)Cc2c(C)n(-c3ccc(-c4ccccc4)cc3)c3ccc(OC)cc23)cc1

tested on: PC-3; assay: Antiproliferative activity against human PC3 cells incubated for 48 hrs by MTT assay; format: functional, cell-based; conditions: PC-3, 48 h

IC50 | Compound
30.1 µM | Cc1ccc(S(=O)(=O)NC(=O)[C@H](Cc2ccccc2)N2C(=O)/C(=C/c3ccc(-c4ccccc4)cc3)SC2=S)cc1
13.9 µM | COc1ccc2c(c1)c(CC(=O)N[C@@H](Cc1ccccc1)C(=O)NS(=O)(=O)c1ccc(Cl)c([N+](=O)[O-])c1)c(C)n2-c1ccc(-c2ccccc2)cc1
17.5 µM | COc1ccc2c(c1)c(CC(=O)N[C@@H](Cc1ccccc1)C(=O)NS(=O)(=O)c1ccccc1)c(C)n2-c1ccc(-c2ccccc2)cc1
23.5 µM | COc1ccc(S(=O)(=O)NC(=O)[C@H](Cc2ccccc2)NC(=O)Cc2c(C)n(-c3ccc(-c4ccccc4)cc3)c3ccc(OC)cc23)cc1

Source: ChEMBL document CHEMBL4043209, “1-Phenyl-1H-indole derivatives as a new class of Bcl-2/Mcl-1 dual inhibitors: Design, synthesis, and preliminary biological evaluation” (Bioorg Med Chem, 2017)
